Data as given in patent publication US20170267727A1, “Conjugates of pH Low Insertion Peptide and Monomethyl Auristatins in the Treatment of Solid Tumors” (Lehigh University, priority 2016, published 2017).
Read-outs that look alike come from different tables or passages of the source. Positions of bridges follow the written chain, without caps; N, C: chain ends. Non-standard residues stand in square brackets, D forms with d. Chains are numbered I, II in the order given. *: point of attachment. Dolaproine = CO[C@@H]([C@@H]1CCCN1)[C@@H](C)C(=O)O; Dil = CC[C@H](C)[C@H](NC)[C@@H](CC(=O)O)OC; X1 = C[C@@H](N*)[C@@H](O)c1ccccc1; NMeV = CN[C@H](C(=O)O)C(C)C; Mpa = O=C(O)CCS

Assays:
[1] = for Trp fluorescence emission maxima: POPC liposomes; for insertion in lipid bilayers: acidic conditions
Experimental: State I corresponds to the peptides in an aqueous environment is shown in black, state II: peptides in the presence of lipid membranes at pH 7.4, shown in blue and state III: peptides in the presence of lipids at pH 5.0 is shown in red. [peptide]=7 μM and peptide-lipid ratio=1:300 with POPC liposomes.
Preparation of POPC Liposomes. Ten milligrams of POPC in chloroform were dried and then held under vacuum overnight. The dried lipid film was rehydrated with 1 ml of 5 mM sodium phosphate, pH 8.0, and mixed by vigorous vortex. The resulting multilamellar vesicle solution was freeze-thawed in liquid nitrogen for seven cycles and were extruded through a polycarbonate membrane with […] diameter pores using a mini extruder (Avanti Polar Lipids) to produce large unilamellar vesicles. Liposomes were used immediately following their preparation. Lipid concentration was checked using the Marshall's assay and the size distribution was verified by dynamic light scattering analysis performed at a scattering angle of 90° using an ALV/GSC-3 goniometer system equipped with ALV/ALV-7004 correlator (ALV-GmbH, Langen, Germany).
Sample preparation for Circular Dichroism and Tryptophan Fluorescence Measurements. Prior to CD or fluorescence measurements, lyophilized aliquots of pHLIP constructs were resuspended to 20 μM with 5 mM sodium phosphate, pH 8.0, and incubated for 1 hour at room temperature. This stock solution was diluted to a final concentration of 7 μM and, when appropriate, incubated with POPC liposomes at a 1:300 peptide-to-lipid molar ratio for 30 minutes at room temperature. Subsequently, samples were adjusted to the desired experimental pH values with the addition of aliquots of an HCl solution to elicit pH-dependent insertion. Samples were allowed to equilibrate at the desired pH for 30 minutes at room temperature before spectroscopic measurements.
Tryptophan Fluorescence Spectroscopy. All measurements were carried out using a Cary Eclipse Fluorescence Spectrophotometer (Varian), and performed at 25° C. with pHLIP construct concentrations equal to 7 μM. Samples were excited at 295 nm and the emission spectra were taken from 300 to 500 nm, with the slit widths for emission and excitation both set 5 nm.
Circular Dichroism Spectroscopy. Far-UV CD spectra of pHLIP constructs were recorded on Jasco J-815 CD spectrometer equipped with a Peltier thermal-controlled cuvette holder (Jasco, Inc.). All measurements were performed in 0.1 mm quartz cuvette at 25° C. with pHLIP constructs concentrations equal to 7 μM. CD intensities are expressed in mean residue molar ellipticity [θ] calculated from the following equation: […]

[2] = tested on: MDA-MB-231 cells; test: Anti-proliferation Assay (2 hours treatment at pH 7.4 or 5.0, 72 hours growth, MTT); settings: for cell killing (printed 49% versus 100%): 1.25 μM treatment
Experimental: FIG. 3A, FIG. 3C and FIG. 3E show HeLa cells treated with pHLIP(WT)-MMAE, pHLIP(D25E)-MMAE, and MMAE(linker), respectively. FIG. 3B, FIG. 3D and FIG. 3F show MDA-MB-231 cells treated with pHLIP(WT)-MMAE, pHLIP(D25E)-MMAE, and MMAE(linker), respectively. Black columns represent cells treated at pH 7.4 and cells treated at low pH are shown in grey. For each condition, 3,000 cells/well (96-well plate) were seeded, allowed to adhere overnight, treated for 2 hours, washed once with media and grown for 72 hour in complete medium at physiologic pH. Cell viability was assessed with the MTT assay. All measurements were normalized to the media control (0 μM, pH 7.4), as 100% cell viability. Results are shown as mean±SD (n=6-9).
Anti-proliferation Assay. HeLa and MDA-MB-231 cells were seeded in 96-well plates at a density of 3,000 cells/well and incubated overnight. Before treatment, construct aliquots were solubilized in an appropriate volume of DMEM without FBS (pH 7.4)—so that upon pH adjustment the desired treatment concentration is obtained—and gently sonicated for 30-60 seconds using a bath sonicator (Branson Ultrasonics). After removal of cell media, this treatment solution was added to each well and incubated at 37° C. for 5-10 minutes. The pH was then adjusted to the desired value using a pre-established volume of DMEM, pH 2.0 buffered with citric acid (final volume=50 μL) and the plate was incubated at 37° C. for 2 hours. After treatment, the media was removed, cells were washed once with 100 μL of complete DMEM, and 100 μL of complete medium was added to each well before returning the plate to the incubator. Treatment solutions were collected and their pH values measured using a micro-combination pH probe (Microelectrodes, Inc.). […] Cell viability was determined after 72 hours using the colorimetric MTT assay. Briefly, 10 μL of a 5 mg/mL MTT stock solution was added to the treated cells and incubated for 2 hours at 37° C. The resulting formazan crystals were solubilized in 200 μL DMSO and the absorbance measured at 580 nm using an Infinite 200 PRO microplate reader (Tecan). Cell viability was calculated against control cells treated with media at physiologic pH.
Inhibition of Cell Proliferation. The ability of pHLIP to move MMAE across the cell membrane and to inhibit cancer cell proliferation in concentration and pH-dependent manners was evaluated. Cell treatments for both pHLIP(WT)-MMAE and pHLIP(D25E)-MMAE constructs were carried out with conjugate concentrations ranging from 1.25 to 10 μM at either pH 7.4 or 5.0. After a 2-hour incubation at 37° C., the treatment media was replaced by fresh media, and cells were grown for an additional 72 hours at normal pH before assessing cell viability using the MTT assay. […] This treatment protocol is quite stringent when compared to the typical multi-days exposure treatments used with free drugs (FIG. 6A and FIG. 6B).

[3] = tested on: HeLa cells; settings: 10 μM, 2 hours, pH 7.4 or pH 5.0
Experimental: (§1) The integrity of the plasma membrane is assessed by the uptake of trypan blue dye. 3,000 cells/well of HeLa (FIG. 4A) and MDA-MB-231 (FIG. 4B) cells were seeded, allowed to adhere overnight and treated with 10 μM conjugates or media alone (no peptide) for 2 hours at pH 7.4 (black bars) or pH 5.0 (grey bars). Cells were detached and counted based on trypan blue uptake with a hemacytometer: % of intact cells corresponds to the number of cells not showing any dye uptake over the total number of cells. Results are shown as mean±SD (n=4).
(§2) Cell Membrane Integrity Assay. HeLa and MDA-MB-231 cells were seeded in 96-well plates at a density of 3,000 cells/well and incubated until confluent (˜72 hours). Before treatment, construct aliquots were solubilized in an appropriate volume of DMEM without FBS (pH 7.4) so that upon pH adjustment 10 μM is obtained. Cell media was removed, the treatment solution was added to each well and cell were incubated at 37° C. for 5-10 minutes. The pH was then adjusted to the desired value using a pre-established volume of DMEM, pH 2.0 buffered with citric acid (final volume=50 μL). The plate was incubated at 37° C. for 2 hours. After treatment, the media was removed, cells were detached using trypsin and counted based on trypan blue uptake using a hemacytometer.

[4] = tested on: MDA-MB-231 cells; settings: 10 μM, 2 hours, pH 7.4 or pH 5.0
Experimental: as §1, §2

| Substance | Trp fluorescence emission maxima ([1]; pH 5.0) | Trp fluorescence emission maxima ([1]; pH 7.4) | insertion in lipid bilayers [1] | cell killing (printed 49% versus 100%) [2] | inhibition of proliferation ([2]; normal pH) | disruption of the plasma membrane [3] | disruption of the plasma membrane [4] |
| --- | --- | --- | --- | --- | --- | --- | --- |
| I: H-AAEQNPIYWARYADWLFTTPLLLLDLALLVDADEGTCG-OH / II: [Mpa][NMeV]V[Dil][Dolaproine]-X1 (disulfide I:37-II:1) [pHLIP(WT)-MMAE] | 334 nm | 348 nm | can insert in lipid bilayers under acidic conditions to form stable transmembrane α-helices | 100% | no significant inhibition of proliferation | neither conjugates, nor low pH treatment, caused disruption of the membranes | neither conjugates, nor low pH treatment, caused disruption of the membranes |
| I: H-AAEQNPIYWARYADWLFTTPLLLLELALLVDADEGTCG-NH2 / II: [Mpa][NMeV]V[Dil][Dolaproine]-X1 (disulfide I:37-II:1) [pHLIP(D25E)-MMAE] | 329 nm | 347 nm | can insert in lipid bilayers under acidic conditions to form stable transmembrane α-helices | 49% | – | neither conjugates, nor low pH treatment, caused disruption of the membranes | neither conjugates, nor low pH treatment, caused disruption of the membranes |
